Laboratory results taken from the OligoGym collection.
HELM strings list units from the 5' end as sugar, base in round brackets, then linkage (d deoxyribose, r ribose, m 2'-O-methyl, p phosphodiester). Strings are as the collection lists them; they lack the last nucleoside at the 3' end of the tested compound. [moe] = 2'-O-(2-methoxyethyl) (MOE); [sp] = phosphorothioate linkage; [m5C] = 5-methylcytosine

The substances below were run against APP (assay: mouse, dose not given). Details: ASO.

Going from “RNA1{[moe](G)[sp].[moe](T)p.[moe](A)p.[moe]([m5C])p.[moe](T)[sp].d([m5C])[sp].d(A)[sp].d(T)[sp].d(T)[sp].d(T)[sp].d(T)[sp].d(T)[sp].d(G)[sp].d(T)[sp].d(T)[sp].[moe]([m5C])p.[moe](T)p.[moe](T)[sp].[moe](A)}$$$$ (last 3' nucleoside missing)” to “RNA1{[moe](G)[sp].[moe](T)p.[moe](G)p.[moe](A)p.[moe](T)[sp].d(T)[sp].d(T)[sp].d([m5C])[sp].d(A)[sp].d([m5C])[sp].d(T)[sp].d(A)[sp].d(A)[sp].d([m5C])[sp].d([m5C])[sp].[moe](G)p.[moe](G)p.[moe]([m5C])[sp].[moe](A)}$$$$ (last 3' nucleoside missing)”, the 3 h FOB score rises from 0.67 score 0-7 to 2 score 0-7.

“RNA1{[moe](G)[sp].[moe](T)p.[moe](G)p.[moe](A)p.[moe]([m5C])[sp].d(T)[sp].d(T)[sp].d(A)[sp].d(T)[sp].d(A)[sp].d([m5C])[sp].d(T)[sp].d([m5C])[sp].d(A)[sp].d(A)[sp].[moe](T)p.[moe](G)p.[moe](A)[sp].[moe]([m5C])}$$$$ (last 3' nucleoside missing)” and “RNA1{[moe](G)[sp].[moe](T)p.[moe](G)p.[moe](T)p.[moe]([m5C])[sp].d(A)[sp].d(T)[sp].d(A)[sp].d(A)[sp].d([m5C])[sp].d(A)[sp].d(T)[sp].d(T)[sp].d(T)[sp].d(A)[sp].[moe]([m5C])p.[moe](T)p.[moe]([m5C])[sp].[moe](A)}$$$$ (last 3' nucleoside missing)” are the same in 3 h FOB score: 0 score 0-7 for the first, 0 score 0-7 for the second.

First: RNA1{[moe](G)[sp].[moe](T)p.[moe](G)p.[moe]([m5C])p.[moe](T)[sp].d(T)[sp].d(A)[sp].d(T)[sp].d(A)[sp].d(A)[sp].d([m5C])[sp].d(T)[sp].d([m5C])[sp].d(T)[sp].d([m5C])[sp].[moe](A)p.[moe](T)p.[moe](A)[sp].[moe]([m5C])}$$$$ (last 3' nucleoside missing)
Second: RNA1{[moe](G)[sp].[moe](T)p.[moe](T)p.[moe](G)p.[moe](A)[sp].d(A)[sp].d(T)[sp].d(T)[sp].d(T)[sp].d([m5C])[sp].d(T)[sp].d(T)[sp].d(A)[sp].d([m5C])[sp].d(A)[sp].[moe]([m5C])p.[moe](T)p.[moe](T)[sp].[moe](T)}$$$$ (last 3' nucleoside missing)
The 3 h FOB score of the first is higher: 1 score 0-7 for the first, 0 score 0-7 for the second.

First: RNA1{[moe](G)[sp].[moe](T)p.[moe](T)p.[moe](G)p.[moe](T)[sp].d(A)[sp].d(G)[sp].d(G)[sp].d(A)[sp].d(A)[sp].d([m5C])[sp].d(T)[sp].d([m5C])[sp].d(G)[sp].d(A)[sp].[moe](A)p.[moe]([m5C])p.[moe]([m5C])[sp].[moe](A)}$$$$ (last 3' nucleoside missing)
Second: RNA1{[moe](G)[sp].[moe](T)p.[moe](T)p.[moe](T)p.[moe](A)[sp].d([m5C])[sp].d([m5C])[sp].d(T)[sp].d(T)[sp].d(T)[sp].d(A)[sp].d(A)[sp].d([m5C])[sp].d(A)[sp].d(T)[sp].[moe](T)p.[moe]([m5C])p.[moe]([m5C])[sp].[moe](T)}$$$$ (last 3' nucleoside missing)
The 3 h FOB score of the first is higher: 1 score 0-7 for the first, 0 score 0-7 for the second.

First: RNA1{[moe](G)[sp].[moe](T)p.[moe](T)p.[moe](T)p.[moe](A)p.[moe]([m5C])[sp].d([m5C])[sp].d(T)[sp].d(T)[sp].d(T)[sp].d(A)[sp].d(A)[sp].d([m5C])[sp].d(A)[sp].d(T)[sp].d(T)[sp].[moe]([m5C])p.[moe]([m5C])[sp].[moe](T)}$$$$ (last 3' nucleoside missing)
Second: RNA1{[moe](G)[sp].[moe](T)p.[moe](T)p.[moe](T)p.[moe]([m5C])[sp].d(A)[sp].d(G)[sp].d(T)[sp].d(A)[sp].d(T)[sp].d(A)[sp].d(T)[sp].d(T)[sp].d([m5C])[sp].d(T)[sp].[moe]([m5C])p.[moe](T)p.[moe](G)[sp].[moe]([m5C])}$$$$ (last 3' nucleoside missing)
The 3 h FOB score of the first is higher: 2.75 score 0-7 for the first, 0 score 0-7 for the second.

Compared with “RNA1{[moe](G)[sp].[moe](T)p.[moe](T)p.[moe](T)p.[moe]([m5C])[sp].d(G)[sp].d([m5C])[sp].d(A)[sp].d(A)[sp].d(A)[sp].d([m5C])[sp].d(A)[sp].d(T)[sp].d([m5C])[sp].d([m5C])[sp].[moe](A)p.[moe](T)p.[moe]([m5C])[sp].[moe]([m5C])}$$$$ (last 3' nucleoside missing)”, “RNA1{[moe](G)[sp].[moe](T)p.[moe](T)p.[moe]([m5C])p.[moe](A)[sp].d([m5C])[sp].d(A)[sp].d(G)[sp].d(T)[sp].d(T)[sp].d(T)[sp].d(A)[sp].d([m5C])[sp].d([m5C])[sp].d([m5C])[sp].[moe]([m5C])p.[moe](A)p.[moe](A)[sp].[moe](G)}$$$$ (last 3' nucleoside missing)” is higher in 3 h FOB score: 0.5 score 0-7 for the first, 3.25 score 0-7 for the second.

Going from “RNA1{[moe](G)[sp].[moe](T)p.[moe](T)p.[moe]([m5C])p.[moe](A)p.[moe]([m5C])[sp].d(A)[sp].d(G)[sp].d(T)[sp].d(T)[sp].d(T)[sp].d(A)[sp].d([m5C])[sp].d([m5C])[sp].d([m5C])[sp].d([m5C])[sp].[moe](A)p.[moe](A)[sp].[moe](G)}$$$$ (last 3' nucleoside missing)” to “RNA1{[moe](G)[sp].[moe](T)p.[moe](T)p.[moe]([m5C])p.[moe]([m5C])[sp].d(A)[sp].d(A)[sp].d(A)[sp].d(G)[sp].d(A)[sp].d(T)[sp].d(T)[sp].d([m5C])[sp].d([m5C])[sp].d(A)[sp].[moe]([m5C])p.[moe](T)p.[moe](T)[sp].[moe](T)}$$$$ (last 3' nucleoside missing)”, the 3 h FOB score rises from 0 score 0-7 to 1.25 score 0-7.

Compared with “RNA1{[moe](G)[sp].[moe](T)p.[moe]([m5C])p.[moe](A)p.[moe]([m5C])[sp].d(A)[sp].d(T)[sp].d(G)[sp].d(A)[sp].d(T)[sp].d(A)[sp].d(T)[sp].d(T)[sp].d(T)[sp].d([m5C])[sp].[moe](A)p.[moe](G)p.[moe](A)[sp].[moe](T)}$$$$ (last 3' nucleoside missing)”, “RNA1{[moe](G)[sp].[moe](T)p.[moe]([m5C])p.[moe]([m5C])p.[moe](A)[sp].d(A)[sp].d(A)[sp].d(A)[sp].d([m5C])[sp].d(A)[sp].d([m5C])[sp].d(A)[sp].d(G)[sp].d(T)[sp].d(A)[sp].[moe]([m5C])p.[moe](A)p.[moe](A)[sp].[moe]([m5C])}$$$$ (last 3' nucleoside missing)” is higher in 3 h FOB score: 1 score 0-7 for the first, 1.67 score 0-7 for the second.

Going from “RNA1{[moe](G)[sp].[moe](T)p.[moe]([m5C])p.[moe]([m5C])p.[moe](A)[sp].d(T)[sp].d(T)[sp].d(A)[sp].d([m5C])[sp].d(A)[sp].d(A)[sp].d(A)[sp].d([m5C])[sp].d(A)[sp].d(A)[sp].[moe](G)p.[moe](T)p.[moe](A)[sp].[moe](A)}$$$$ (last 3' nucleoside missing)” to “RNA1{[moe](G)[sp].[moe]([m5C])p.[moe](A)p.[moe](A)p.[moe](A)[sp].d(G)[sp].d(A)[sp].d(A)[sp].d([m5C])[sp].d(A)[sp].d([m5C])[sp].d([m5C])[sp].d(A)[sp].d(A)[sp].d(T)[sp].[moe](T)p.[moe](T)p.[moe](T)[sp].[moe](T)}$$$$ (last 3' nucleoside missing)”, the 3 h FOB score rises from 1 score 0-7 to 3 score 0-7.

“RNA1{[moe](G)[sp].[moe]([m5C])p.[moe](A)p.[moe](A)p.[moe](A)[sp].d([m5C])[sp].d([m5C])[sp].d(A)[sp].d([m5C])[sp].d(T)[sp].d(T)[sp].d([m5C])[sp].d(T)[sp].d(G)[sp].d(T)[sp].[moe](A)p.[moe](G)p.[moe]([m5C])[sp].[moe](T)}$$$$ (last 3' nucleoside missing)” and “RNA1{[moe](G)[sp].[moe]([m5C])p.[moe](A)p.[moe](A)p.[moe](G)[sp].d(A)[sp].d([m5C])[sp].d(T)[sp].d(T)[sp].d(T)[sp].d(T)[sp].d([m5C])[sp].d(T)[sp].d(T)[sp].d(T)[sp].[moe](G)p.[moe]([m5C])p.[moe](T)[sp].[moe]([m5C])}$$$$ (last 3' nucleoside missing)” are the same in 3 h FOB score: 0 score 0-7 for the first, 0 score 0-7 for the second.

Compared with “RNA1{[moe](G)[sp].[moe]([m5C])p.[moe](A)p.[moe](A)p.[moe]([m5C])[sp].d(A)[sp].d(G)[sp].d(A)[sp].d(T)[sp].d([m5C])[sp].d(T)[sp].d([m5C])[sp].d(T)[sp].d(T)[sp].d(A)[sp].[moe](T)p.[moe](T)p.[moe]([m5C])[sp].[moe](T)}$$$$ (last 3' nucleoside missing)”, “RNA1{[moe](G)[sp].[moe]([m5C])p.[moe](A)p.[moe](G)p.[moe](A)[sp].d(A)[sp].d(T)[sp].d(A)[sp].d([m5C])[sp].d([m5C])[sp].d(A)[sp].d(A)[sp].d(G)[sp].d(T)[sp].d(T)[sp].[moe](A)p.[moe](G)p.[moe](T)[sp].[moe](A)}$$$$ (last 3' nucleoside missing)” is higher in 3 h FOB score: 0 score 0-7 for the first, 0.25 score 0-7 for the second.

Compared with “RNA1{[moe](G)[sp].[moe]([m5C])p.[moe](A)p.[moe](G)p.[moe](A)[sp].d(A)[sp].d(T)[sp].d([m5C])[sp].d([m5C])[sp].d(A)[sp].d([m5C])[sp].d(A)[sp].d(T)[sp].d(T)[sp].d(G)[sp].[moe](T)p.[moe]([m5C])p.[moe](A)[sp].[moe]([m5C])}$$$$ (last 3' nucleoside missing)”, “RNA1{[moe](G)[sp].[moe]([m5C])p.[moe](A)p.[moe](G)p.[moe](A)[sp].d(T)[sp].d([m5C])[sp].d(A)[sp].d(T)[sp].d(A)[sp].d(T)[sp].d(A)[sp].d([m5C])[sp].d(T)[sp].d(A)[sp].[moe](T)p.[moe](A)p.[moe]([m5C])[sp].[moe](A)}$$$$ (last 3' nucleoside missing)” is lower in 3 h FOB score: 1.5 score 0-7 for the first, 0 score 0-7 for the second.

“RNA1{[moe](G)[sp].[moe]([m5C])p.[moe](A)p.[moe](G)p.[moe](T)[sp].d([m5C])[sp].d(A)[sp].d(A)[sp].d(T)[sp].d([m5C])[sp].d(A)[sp].d(A)[sp].d([m5C])[sp].d(T)[sp].d([m5C])[sp].[moe]([m5C])p.[moe](A)p.[moe](A)[sp].[moe]([m5C])}$$$$ (last 3' nucleoside missing)” and “RNA1{[moe](G)[sp].[moe]([m5C])p.[moe](A)p.[moe](G)p.[moe]([m5C])[sp].d(A)[sp].d(G)[sp].d(G)[sp].d(T)[sp].d(T)[sp].d(T)[sp].d([m5C])[sp].d([m5C])[sp].d(A)[sp].d(T)[sp].[moe](A)p.[moe](A)p.[moe](A)[sp].[moe]([m5C])}$$$$ (last 3' nucleoside missing)” are the same in 3 h FOB score: 0 score 0-7 for the first, 0 score 0-7 for the second.
